Experimental data taken from patent US20020026053A1, “Novel 3-(substituted) -2- indolinones compounds and use thereof as inhibitors of protein kinase activity” (priority 1997, published 2002).

How the values were obtained:
EGFR = biological target: T1, EGFR (Homo sapiens, UniProt P00533); experiment: Biochemical EGFR Assay; parameters: concentration or dose not given beside the values
T1 construct: endogenous in cells; host or cells: A431 cells (lysate, captured with SUMO1 anti-EGFR antibody)
Procedure, shortened: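 EGFR from A431 lysate was captured on anti-EGFR-coated wells and preincubated 30 min with compound (diluted 1:10 in TBS) at room temperature. After ATP/MnCl2 phosphorylation for 5 min, the reaction was stopped with EDTA. Phosphotyrosine was detected by ELISA (anti-phosphotyrosine, peroxidase conjugate, ABTS) at 410 nm.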

PDGF-R = PDGF-R Assay (cellular ELISA, U1242 cells); assay type: cell-based; parameters: concentration or dose not given beside the values
Procedure, shortened: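 U1242 cells seeded in 0.5% serum, serum-starved, then exposed to compound for 2 hr at 37°C before 5–10 min ligand stimulation and lysis in HNTG. Lysate captured on receptor-antibody-coated plates; phosphotyrosine detected with polyclonal anti-pTyr, goat anti-rabbit IgG and ABTS/H2O2, A410 (ref 630 nm), versus untreated cells.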

T1 sequence (P00533 25-1210): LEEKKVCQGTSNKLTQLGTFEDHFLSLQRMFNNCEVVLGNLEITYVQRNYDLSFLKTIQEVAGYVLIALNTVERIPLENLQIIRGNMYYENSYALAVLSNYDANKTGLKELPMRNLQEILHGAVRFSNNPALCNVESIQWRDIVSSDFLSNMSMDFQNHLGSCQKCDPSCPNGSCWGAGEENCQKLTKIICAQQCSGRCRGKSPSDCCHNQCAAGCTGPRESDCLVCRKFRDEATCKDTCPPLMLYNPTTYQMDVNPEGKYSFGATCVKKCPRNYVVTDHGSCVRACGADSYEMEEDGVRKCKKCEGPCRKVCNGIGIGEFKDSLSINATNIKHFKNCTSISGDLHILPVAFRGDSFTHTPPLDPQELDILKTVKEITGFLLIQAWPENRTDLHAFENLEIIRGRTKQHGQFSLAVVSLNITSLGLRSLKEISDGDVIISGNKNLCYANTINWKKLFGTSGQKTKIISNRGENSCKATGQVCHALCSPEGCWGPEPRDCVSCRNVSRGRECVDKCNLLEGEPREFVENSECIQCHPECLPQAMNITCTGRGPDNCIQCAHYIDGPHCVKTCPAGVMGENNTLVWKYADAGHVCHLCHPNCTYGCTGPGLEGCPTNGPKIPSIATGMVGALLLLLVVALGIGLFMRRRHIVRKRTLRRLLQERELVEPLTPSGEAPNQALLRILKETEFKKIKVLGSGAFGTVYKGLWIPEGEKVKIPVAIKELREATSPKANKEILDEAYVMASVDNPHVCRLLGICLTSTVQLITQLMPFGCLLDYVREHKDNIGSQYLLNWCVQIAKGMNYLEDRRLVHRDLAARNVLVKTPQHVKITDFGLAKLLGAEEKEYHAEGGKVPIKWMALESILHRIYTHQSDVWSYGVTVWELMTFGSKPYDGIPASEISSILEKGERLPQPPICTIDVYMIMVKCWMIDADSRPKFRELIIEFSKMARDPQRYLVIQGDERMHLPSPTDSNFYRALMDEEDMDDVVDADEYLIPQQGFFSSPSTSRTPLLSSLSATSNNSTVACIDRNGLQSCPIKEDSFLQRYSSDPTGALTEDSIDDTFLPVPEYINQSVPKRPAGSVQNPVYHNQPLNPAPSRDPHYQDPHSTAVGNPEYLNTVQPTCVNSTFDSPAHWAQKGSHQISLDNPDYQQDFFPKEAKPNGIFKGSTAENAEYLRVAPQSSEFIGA

SMILES	Biochem EGFR % Inhibition (P.167) (EGFR)	PDGF Kinase % Inhibition (P.119) (PDGF-R)
CCOc1ccccc1C=C1C(=O)Nc2c(Br)cc(Br)c(C)c21 [10717/H02]	3.5%	
Cc1c(Br)cc(Br)c2c1C(=Cc1cccs1)C(=O)N2 [10717/H03]	25.7%	
Cc1c(Br)cc(Br)c2c1C(=Cc1cccn1C)C(=O)N2 [10717/H04]	6.8%	
COc1ccc(C=C2C(=O)Nc3c(Br)cc(Br)c(C)c32)cc1OC [10720/H04]	−49.6%	
Cc1c(Br)cc(Br)c2c1C(=Cc1ccccc1O)C(=O)N2 [10720/H05]	−29.0%	
Cc1c(Br)cc(Br)c2c1C(=Cc1ccccc1)C(=O)N2 [10720/H06]	−52.4%	
CSc1ccc(C=C2C(=O)Nc3c(Br)cc(Br)c(C)c32)s1 [10720/H07]	−49.8%	
Cc1cc(O)cc(O)c1C=C1C(=O)Nc2c(Br)cc(Br)c(C)c21 [10720/H08]	−55.8%	
CCOc1cc(C=C2C(=O)Nc3c(Br)cc(Br)c(C)c32)ccc1O [10720/H09]	−66.8%	
COc1ccc(O)c(C=C2C(=O)Nc3c(Br)cc(Br)c(C)c32)c1 [10720/H10]	−62.8%	
Cc1c(Br)cc(Br)c2c1C(=Cc1ncc[nH]1)C(=O)N2 [10720/H11]	−19.3%	
Cc1c(Br)cc(Br)c2c1C(=Cc1nc3ccccc3n1C)C(=O)N2 [10721/H02]	20.1%	
Cc1c(Br)cc(Br)c2c1C(=Cc1nn(C)cc1Cl)C(=O)N2 [10721/H03]	29.2%	
Cc1cc(C=C2C(=O)Nc3c(Br)cc(Br)c(C)c32)sc1C [10721/H04]	−8.5%	
Cc1c(Br)cc(Br)c2c1C(=Cc1cc3c([nH]1)CCCC3)C(=O)N2 [10721/H05]	−12.4%	
Cc1c(Br)cc(Br)c2c1C(=Cc1cc([N+](=O)[O-])cc(CCl)c1O)C(=O)N2 [10721/H06]	43.3%	
Cc1c(Br)cc(Br)c2c1C(=Cc1ccc(Cl)s1)C(=O)N2 [10721/H07]	−20.5%	
Cc1cc(C)c(C=C2C(=O)Nc3c(Br)cc(Br)c(C)c32)[nH]1 [10721/H08]	−6.8%	
Cc1c(Br)cc(Br)c2c1C(=Cc1ccc(O)c(C(C)(C)C)c1)C(=O)N2 [10721/H09]	−10.4%	
Cc1c(Br)cc(Br)c2c1C(=Cc1cc(Br)c(O)c(C(C)(C)C)c1)C(=O)N2 [10721/H10]	−3.9%	
Cc1c(Br)cc(Br)c2c1C(=Cc1cc(C(C)(C)C)c(O)c(C(C)(C)C)c1)C(=O)N2 [10721/H11]	−21.3%	

SMILES	Biochem EGFR % Inhibition (P.167) (EGFR)	PDGF Kinase % Inhibition (P.119) (PDGF-R)
Cc1c(Br)cc(Br)c2c1C(=Cc1cc([N+](=O)[O-])c(O)c(C(C)(C)C)c1)C(=O)N2 [10722/H02]	24.8%	19.2%
Cc1c(Br)cc(Br)c2c1C(=Cc1c(O)cc(O)cc1O)C(=O)N2 [10722/H03]	27.8%	26.6%
Cc1c(Br)cc(Br)c2c1C(=Cc1ccc([N+](=O)[O-])s1)C(=O)N2 [10722/H04]	8.6%	−26.1%
Cc1c(Br)cc(Br)c2c1C(=Cc1ccc(C(=O)O)cc1)C(=O)N2 [10722/H05]	1.1%	0.9%
Cc1c(Br)cc(Br)c2c1C(=Cc1ccc(F)cc1F)C(=O)N2 [10722/H06]	−2.0%	18.6%
Cc1cc(C=C2C(=O)Nc3c(Br)cc(Br)c(C)c32)cc(C)c1O [10722/H07]	−24.8%	−16.9%
Cc1c(Br)cc(Br)c2c1C(=Cc1cc(Cl)c(O)c(C(C)(C)C)c1)C(=O)N2 [10722/H08]	−5.7%	−15.2%
Cc1c(Br)cc(Br)c2c1C(=Cc1csc([N+](=O)[O-])c1)C(=O)N2 [10722/H09]	−7.4%	17.5%
CCCCN(CCCC)c1ccc(C=C2C(=O)Nc3c(Br)cc(Br)c(C)c32)cc1 [10722/H10]	−11.2%	7.2%
Cc1c(Br)cc(Br)c2c1C(=Cc1ccc(C(F)(F)F)cc1)C(=O)N2 [10722/H11]	−16.3%	15.7%
Cc1c(Br)cc(Br)c2c1C(=Cc1ccc(O)c(O)c1O)C(=O)N2 [10723/H02]	72.8%	20.7%
COc1cccc(C=C2C(=O)Nc3c(Br)cc(Br)c(C)c32)c1O [10723/H03]	6.3%	−30.6%
Cc1c(Br)cc(Br)c2c1C(=Cc1cc(O)c(O)c(Br)c1)C(=O)N2 [10723/H04]	7.1%	53.3%
CC(=O)Oc1ccc(C=C2C(=O)Nc3c(Br)cc(Br)c(C)c32)cc1OC(C)=O [10723/H05]	−17.3%	−12.6%
Cc1cc(C=C2C(=O)Nc3c(Br)cc(Br)c(C)c32)ccc1O [10723/H06]	−11.8%	−17.4%
Cc1c(Br)cc(Br)c2c1C(=Cc1ccccc1Br)C(=O)N2 [10723/H07]	−11.3%	−20.9%
Cc1c(Br)cc(Br)c2c1C(=Cc1ccc(O)cc1O)C(=O)N2 [10723/H08]	69.9%	4.1%
COc1ccc(C=C2C(=O)Nc3c(Br)cc(Br)c(C)c32)c(O)c1 [10723/H09]	−2.6%	15.9%
Cc1c(Br)cc(Br)c2c1C(=Cc1cccc(Br)c1)C(=O)N2 [10723/H10]	−38.1%	−22.3%
Cc1c(Br)cc(Br)c2c1C(=Cc1cc(C(C)(C)C)cc(C(C)(C)C)c1O)C(=O)N2 [10723/H11]	−20.7%	29.7%
Cc1c(Br)cc(Br)c2c1C(=Cc1ccc(N(C)C)c3ccccc13)C(=O)N2 [10724/H02]	17.6%	2.2%

SMILES	Biochem EGFR % Inhibition (P.167) (EGFR)	PDGF Kinase % Inhibition (P.119) (PDGF-R)
Cc1c(Br)cc(Br)c2c1C(=Cc1ccc(O)c([N+](=O)[O-])c1)C(=O)N2 [10724/H03]	0.3%	−7.6%
Cc1c(Br)cc(Br)c2c1C(=Cc1ccc([N+](=O)[O-])c(O)c1)C(=O)N2 [10724/H04]	14.0%	−13.1%
Cc1c(Br)cc(Br)c2c1C(=Cc1cc3c4c(c1O)CCCN4CCC3)C(=O)N2 [10724/H05]	−1.3%	−19.4%
Cc1c(Br)cc(Br)c2c1C(=Cc1cc(C(C)C)c(O)c(C(C)C)c1)C(=O)N2 [10724/H06]	−8.2%	−20.8%
Cc1c(Br)cc(Br)c2c1C(=Cc1cc3ccccc3o1)C(=O)N2 [10724/H07]	−19.3%	−39.6%
COc1cc(O)c(C=C2C(=O)Nc3c(Br)cc(Br)c(C)c32)c(OC)c1 [10724/H08]	−19.7%	−9.0%
Cc1c(Br)cc(Br)c2c1C(=Cc1cccn1-c1ccc(Cl)cc1)C(=O)N2 [10724/H09]	−33.5%	−13.1%
CCc1ccc(C=C2C(=O)Nc3c(Br)cc(Br)c(C)c32)o1 [10724/H10]	−25.5%	−2.7%
Cc1c(Br)cc(Br)c2c1C(=Cc1sc3scc(C)c3c1C)C(=O)N2 [10724/H11]	−12.8%	−31.2%
Cc1c(Br)cc(Br)c2c1C(=Cc1sccc1Br)C(=O)N2 [10725/H02]	−23.5%	−19.9%
COc1ccc(Br)c(C=C2C(=O)Nc3c(Br)cc(Br)c(C)c32)c1O [10725/H03]	−16.5%	−12.8%
Cc1ccc(C=C2C(=O)Nc3c(Br)cc(Br)c(C)c32)o1 [10725/H04]	17.2%	−4.1%
Cc1cc(C=C2C(=O)Nc3c(Br)cc(Br)c(C)c32)[nH]n1 [10725/H05]	−30.2%	14.6%
COc1cc(C)cc(O)c1C=C1C(=O)Nc2c(Br)cc(Br)c(C)c21 [10725/H06]	0.3%	6.9%
Cc1c(Br)cc(Br)c2c1C(=Cc1ccc(N3CCN(C=O)CC3)cc1)C(=O)N2 [10725/H07]	−13.3%	2.6%
Cc1c(Br)cc(Br)c2c1C(=Cc1ccc(N3CCOCC3)cc1)C(=O)N2 [10725/H08]	−3.7%	13.6%
COC(=O)Cc1c(Cl)[nH]c(C=C2C(=O)Nc3c(Br)cc(Br)c(C)c32)c1C(=O)OC [10725/H09]	−28.4%	9.3%
Cc1c(Br)cc(Br)c2c1C(=Cc1c(Br)cnn1-c1ccc(Cl)cc1)C(=O)N2 [10725/H10]	9.1%	12.2%
Cc1c(Br)cc(Br)c2c1C(=Cc1c[nH]cn1)C(=O)N2 [10725/H11]	0.5%	16.5%
